Data published in patent US12240811B2, “N-heterocyclic five-membered ring-containing capsid protein assembly inhibitor, pharmaceutical composition and uses thereof” (CHIA TAI TIANQING PHARMACEUTICAL GROUP CO., LTD., priority 2019, dated 2025).
Where two headings read alike, the source gives them in different places.

Columns and labels:
[1] = biological target: CYP2C19 (Homo sapiens (Human), UniProt P33261); assay: CYP450 enzyme inhibition study, CYP2C19; format: in vitro ADME
Protocol: (§1) 500 μL of a final incubation system contains 50 μL of human liver microsomes (protein concentration: 0.2 mg/mL, Corning), 1 μL of mixed CYP450 specific substrates (CYP1A2, CYP 2B6, CYP 2C9, CYP2C19, CYP 2D6, and CYP 3A4), 398 μL PBS buffer (pH7.4), 1 μL specific positive inhibitor (positive control group) or the test compound (formulated with acetonitrile), and 50 μL NADPH+MgCl2. Duplicate incubation systems of 0.5 mL each were formulated for each CYP450 subtype. A total volume of 450 μL of a uniformly mixed solution of the substrate and the enzyme was formulated in each tube, and the solution and NADPH were pre-incubated at 37° C. for 5 minutes, respectively. Then 50 μL of the mixed solution of NADPH+MgCl2 was added for reaction. 50 μL of the reaction solution was taken out at 30 minutes, and the reaction was terminated with 300 μL of ice acetonitrile containing an internal standard. In addition, two control groups of 500 μL each without NADPH were prepared in parallel as a negative control group.
(§2) Sample pre-treatment: To 50 μL of the incubated sample was added 300 μL of ice acetonitrile containing an internal standard, and then precipitated. After vortexing for 5 minutes, the sample was centrifugated (12000 rpm, 4° C.) for 10 minutes. 75 μL of the supernatant was pipetted, and 75 μL of ultrapure water was added thereto for dilution and mixed uniformly. […]

[2] = biological target: CYP 2D6 (Homo sapiens (Human), UniProt P10635); assay: CYP450 enzyme inhibition study, CYP 2D6; format: in vitro ADME
Sequence of CYP 2D6 (P10635 whole entry): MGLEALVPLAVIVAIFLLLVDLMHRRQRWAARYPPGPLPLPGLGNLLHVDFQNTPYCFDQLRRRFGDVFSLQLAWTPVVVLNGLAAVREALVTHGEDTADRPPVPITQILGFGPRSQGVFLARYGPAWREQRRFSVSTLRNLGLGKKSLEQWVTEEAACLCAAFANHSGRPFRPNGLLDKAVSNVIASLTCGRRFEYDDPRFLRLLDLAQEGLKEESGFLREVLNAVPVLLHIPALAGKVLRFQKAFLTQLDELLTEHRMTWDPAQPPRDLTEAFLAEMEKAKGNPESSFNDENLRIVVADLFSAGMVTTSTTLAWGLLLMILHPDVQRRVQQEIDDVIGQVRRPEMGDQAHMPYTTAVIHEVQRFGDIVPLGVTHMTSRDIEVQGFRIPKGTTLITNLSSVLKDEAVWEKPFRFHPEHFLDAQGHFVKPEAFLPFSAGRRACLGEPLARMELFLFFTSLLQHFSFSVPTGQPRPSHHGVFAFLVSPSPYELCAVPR
Protocol: as §1, §2

[3] = Stability of liver microsomes in vitro, human; format: in vitro ADME
Protocol: 300 μL of a final incubation system contains 30 μL of liver microsomes (protein concentration: 0.15 mg/mL, Corning), 30 μL NADPH+MgCl2, 3 μL substrate (formulated with acetonitrile), and 237 μL PBS buffer. Duplicate incubation systems of 0.3 mL each were formulated for each species. A total volume of 270 μL of a uniformly mixed solution of the substrate and the enzyme was formulated in each tube, the solution and NADPH were pre-incubated at 37° C. for 5 minutes, respectively. Then 30 μL of the mixed solution of NADPH+MgCl2 was added for reaction. 50 μL of the reaction solution was taken out at 0, 10, 30, and 60 mins, and the reaction was terminated with 300 μL of ice acetonitrile containing an internal standard.
Sample pre-treatment: To 50 μL of the incubated sample was added 300 μL of ice acetonitrile containing diazepam as an internal standard and then precipitated. After vortexing for 5 minutes, the sample was centrifugated (12000 rpm, 4° C.) for 10 minutes. 75 μL of the supernatant was pipetted into a 96-well plate, and then diluted with 75 μL ultrapure water and mixed uniformly. 0.5 μL of the resulting solution was injected and analyzed by LC-MS/MS.

[4] = biological target: CYP 2B6 (Homo sapiens (Human), UniProt P20813); assay: CYP450 enzyme inhibition study, CYP 2B6; format: in vitro ADME; conditions: human liver microsomes; read-out: Subtypes IC50 2B6
Sequence of CYP 2B6 (P20813 whole entry): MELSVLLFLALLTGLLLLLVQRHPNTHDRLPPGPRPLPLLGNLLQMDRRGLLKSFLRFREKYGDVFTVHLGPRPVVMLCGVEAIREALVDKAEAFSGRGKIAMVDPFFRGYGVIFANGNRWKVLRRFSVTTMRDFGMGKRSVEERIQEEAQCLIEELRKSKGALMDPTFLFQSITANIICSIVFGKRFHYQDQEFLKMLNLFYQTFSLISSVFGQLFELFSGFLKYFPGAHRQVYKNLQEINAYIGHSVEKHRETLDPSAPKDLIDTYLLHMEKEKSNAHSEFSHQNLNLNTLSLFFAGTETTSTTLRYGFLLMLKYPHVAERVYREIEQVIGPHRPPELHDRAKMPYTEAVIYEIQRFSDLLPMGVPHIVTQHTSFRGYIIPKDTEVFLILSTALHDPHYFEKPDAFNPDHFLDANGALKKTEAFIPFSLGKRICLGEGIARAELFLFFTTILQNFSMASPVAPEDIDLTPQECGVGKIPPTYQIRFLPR
Protocol: as §1, §2

[5] = In vivo pharmacokinetics (PK) study in rats; parameters: species or system SD rats; conditions: for half-life: SD, in vivo; for AUC(0-t): read-out: AUC(0-48 h)
[6] = rat, plasma, SD rats, IV 5 mg/kg
[7] = rat, plasma, SD rats, PO 10 mg/kg

Sequence of CYP2C19 (P33261 whole entry): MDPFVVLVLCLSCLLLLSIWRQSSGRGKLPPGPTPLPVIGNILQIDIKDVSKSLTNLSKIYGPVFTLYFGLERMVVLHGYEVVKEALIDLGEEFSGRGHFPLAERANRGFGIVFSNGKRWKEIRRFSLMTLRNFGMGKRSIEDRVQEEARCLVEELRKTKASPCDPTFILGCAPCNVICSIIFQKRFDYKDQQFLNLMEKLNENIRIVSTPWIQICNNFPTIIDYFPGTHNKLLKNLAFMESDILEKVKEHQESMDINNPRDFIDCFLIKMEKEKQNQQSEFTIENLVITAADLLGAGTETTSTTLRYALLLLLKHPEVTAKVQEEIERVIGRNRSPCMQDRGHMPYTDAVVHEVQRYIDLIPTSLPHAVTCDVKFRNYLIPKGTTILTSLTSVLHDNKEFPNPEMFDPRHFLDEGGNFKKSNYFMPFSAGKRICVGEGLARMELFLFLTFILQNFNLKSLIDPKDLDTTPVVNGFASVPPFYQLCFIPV

Cc1[nH]c(C(=O)C(=O)N[C@@H](C)C(F)(F)F)c(C)c1C(=O)Nc1ccc(F)c(C#N)c1 [Example 1, (S)—N-(3-cyano-4-fluorophenyl)-2,4-dimethyl-5-(2-oxo-2-((1,1,1-trifluoroprop-2-yl)amino)acetyl)-1H-pyrrole-3-carboxamide]
IC50 [1]: 20 µM
IC50 [2]: 54 µM
Remaining (%) of human liver microsomes at 60 min [3]: 99%
IC50 [4]: > 200 µM
F ([5]; SD rats, PO 10 mg/kg vs IV 5 mg/kg): 100%
half-life ([5]; rat, iv, 5 mg/kg): 52.8 h
half-life ([5]; rat, po, 10 mg/kg): 45.6 h
AUC(0-inf) [5, 6]: 148 µg·h/mL
Cmax [5, 6]: 3510 ng/mL
clearance [5, 6]: 0.5 mL/min/kg
AUC(0-t) [5, 6]: 127 µg·h/mL
Vd ([5]; rat, plasma, SD rats, IV 5 mg/kg, read-out: Vz): 2.58 L/kg
AUC(0-inf) [5, 7]: 284 µg·h/mL
Cmax [5, 7]: 4110 ng/mL
AUC(0-t) [5, 7]: 254 µg·h/mL
